Test results: publication PMC4991450, “Protein arginine methyltransferase 1 may be involved in pregnane x receptor-activated overexpression of multidrug resistance 1 gene during acquired multidrug resistant” (Oncotarget, 2016)

Target: Protein arginine methyltransferase 1 (PRMT1) (Homo sapiens, UniProt Q99873)
Experiment: Transzyme HMT PRMT1 fluorescence polarization enzyme assay, rescreened at […]
Format: biochemical

Sequence of Protein arginine methyltransferase 1 (PRMT1) (Q99873 whole entry): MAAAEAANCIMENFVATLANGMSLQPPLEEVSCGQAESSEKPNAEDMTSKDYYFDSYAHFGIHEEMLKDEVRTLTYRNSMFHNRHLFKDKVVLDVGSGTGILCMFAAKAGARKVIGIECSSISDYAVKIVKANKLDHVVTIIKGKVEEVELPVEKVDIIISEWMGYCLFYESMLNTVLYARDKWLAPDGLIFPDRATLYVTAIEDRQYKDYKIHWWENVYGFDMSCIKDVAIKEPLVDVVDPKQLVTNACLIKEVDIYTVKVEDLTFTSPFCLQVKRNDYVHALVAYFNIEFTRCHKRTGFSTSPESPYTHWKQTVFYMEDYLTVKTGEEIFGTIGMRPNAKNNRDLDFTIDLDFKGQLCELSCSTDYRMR

| SMILES | Transzyme HMT PRMT1 fluorescence polarization enzyme assay, rescreened at 0-100 |
| --- | --- |
| CCOC(=O)C1=C(C)NC(C)=C(C(=O)OC)C1c1cccc(Cl)c1Cl (centres unmarked) [felodipline] | Five compounds were found to inhibit PRMT1 activity, including rutin, isoquercitrin, salvianolic acid A (SAA), naproxen, and felodipline |
| O=c1c(O[C@@H]2O[C@H](CO)[C@@H](O)[C@H](O)[C@H]2O)c(-c2ccc(O)c(O)c2)oc2cc(O)cc(O)c12 [isoquercitrin] | Five compounds were found to inhibit PRMT1 activity, including rutin, isoquercitrin, salvianolic acid A (SAA), naproxen, and felodipline |
| COc1ccc2cc([C@H](C)C(=O)O)ccc2c1 [naproxen] | Five compounds were found to inhibit PRMT1 activity, including rutin, isoquercitrin, salvianolic acid A (SAA), naproxen, and felodipline |
| C[C@@H]1O[C@@H](OC[C@H]2O[C@@H](Oc3c(-c4ccc(O)c(O)c4)oc4cc(O)cc(O)c4c3=O)[C@H](O)[C@@H](O)[C@@H]2O)[C@H](O)[C@H](O)[C@H]1O [rutin] | Five compounds were found to inhibit PRMT1 activity, including rutin, isoquercitrin, salvianolic acid A (SAA), naproxen, and felodipline |
| O=C(/C=C/c1ccc(O)c(O)c1/C=C/c1ccc(O)c(O)c1)O[C@H](Cc1ccc(O)c(O)c1)C(=O)O [salvianolic acid A] | Five compounds were found to inhibit PRMT1 activity, including rutin, isoquercitrin, salvianolic acid A (SAA), naproxen, and felodipline |
